Experimental findings from patent US7923465B2, “Cannabinoid receptor ligands, pharmaceutical compositions containing them, and process for their preparation” (priority 2005, dated 2011) are described below.

The target of series [1] is T1, CB1 (Rattus norvegicus, UniProt P20272). Put plainly: GTPγS binding assay, CB1 functional assay in rat cerebellar membrane (Protocol VIII). It is filed as biochemical. Details: 10 μg rat cerebellum membrane; from tissue; host or cells: rat cerebellum membrane, prepared in-house. Particulars: for activation at 1 µM / Per Se % Stimulation: tested at 1 uM; for inhibition at 1 µM / % Inhibition of WIN-55212-2 induced stimulation: tested at 1 uM in presence of 1 μM WIN 55,212-2. The protocol:
VIII. Protocol for GTPγS Binding Assay (CB1 Functional Assay in Rat Cerebellar Membrane)
In this GTPγS binding assay, total, basal and nonspecific binding were determined. See Griffin G., Atkinson P. J., Showalter V. M., Martin B. R. and Abood M. E., “Evaluation of cannabinoid receptor agonists and antagonists using the Guanosine-5′-O-(3-(^35S)thio)-triphosphate binding assay in rat cerebellar membranes,” J Pharmacol Exp Ther 285: 553-560, 1998. Three wells for total binding, three wells for basal binding, and three wells for nonspecific binding at 0.2 nM concentration of radioligand were used. Basal binding was defined by 50 μM GDP (Guanosine diphosphate) and non-specific binding was defined by 10 μM unlabeled GTPγS. 10 μg rat cerebellum membrane, 50 μM of GDP, WIN-55212-2 or test compound (1 μM or 300 nM), 10 μM unlabeled GTPγs, and 0.2 nM of [^35S]GTPγS were added into a 96 well plate and the final volume of the reaction mixture was made with GTPγS buffer (50 mM Tris, 3 mM anhydrous MgCl2, 0.2 mM EGTA and 100 mM NaCl pH 7.4) to 200 μl. The plates were incubated at 30° C. for 1 hour. Then the reaction was stopped by filtration using a Whatman GF/B-96 microfilter plate. Three washings were given using Tris-HCl. The radioactivity bound to the brain membrane was retained on the filter disks to which scintillation fluid was added (Microscint PS). Then plates were read for radioactive counts using a Beta Liquid Scintillation Counter (Packard Instruments, Ill., USA).
The rat cerebellar brain membrane was prepared as follow: • 1. Sacrifice the rat and take out the whole brain and separate cerebellum as fast as possible and keep it on ice. • 2. Take the weight of the cerebellum and homogenize in 30 ml of homogenizing buffer (50 mM Tris-HCL containing 1 mM EDTA and 5% sucrose, pH 7.5) using homogenizer in cold condition. • 3. Centrifuge the homogenized cerebellum at 18000 rpm (38000 g) for 15 min at 4° C. • 4. Resuspend the pellet in 5 ml 50 mM Tris-HCL containing 1 mM EDTA and keep it on ice for 30 min. • 5. Pass the membrane through insulin syringe to ensure uniform suspension. • 6. Centrifuge the membrane at 18000 rpm at 4° C. for 20 min. • 7. Reconstitute the pellet in 3 ml of GTPγS buffer and estimate the protein by BCA assay and store the membrane in aliquots of 1000 μg of protein. CB1 Agonist and Antagonist Activity Screening Assay
The test compounds were screened at a final concentration of 1 μM or 300 nM in the absence and presence of 1 μM of WIN 55, 212-2 in the same manner as described in the GTPγS binding assay.
An agonist will stimulate the GTPγS binding over the basal.
An inverse agonist will decrease the basal GTPγS binding and/or produce more than 100% inhibition of the agonist (WIN-55212-2) induced stimulation.
The percent stimulation of GTPγS binding by each test compound at 1 μM or 300 nM concentration in the absence and presence of 1 μM WIN 55, 212-2 was calculated by comparing it with basal specific bound (Basal binding—Non Specific binding) values.
(In general: GTPγS resists hydrolysis and so accumulates on activated G proteins.)

The target in series [2] is T1, CB1. As to the kind of experiment: Rat CB1 receptor binding using brain membrane, [3H]SR141716A displacement (Protocol I). Conditions: for inhibition: 1 h. Details: CB1 receptor present in a rat brain membrane preparation; from tissue; host or cells: rat brain membrane; inhibition: dose or concentration left out as unconfirmed.
A further series concerns the target hCB2 (Homo sapiens, UniProt P34972). Put plainly: In vitro binding assay using hCB2-CHO membranes, [3H]-CP-55,940 displacement (Protocol IV). Set-up: expressed in transfected cells; host or cells: CHO (hCB2-CHO, generated in-house). Conditions: for inhibition at 0.3 µM: 1 h, read-out: % Displacement Protocol IV. The method, boiled down:
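Displacement of [3H]-CP-55,940 (0.75 nM) from membranes of CHO cells expressing human CB2 (25-50 μg) was measured in Tris-BSA buffer pH 7.4 with 5 mM MgCl2, 1 mM EDTA, 0.1% BSA, 1 h at 30 °C. Test compounds were at 300 nM final; nonspecific binding defined with 0.5 μM CP-55,940. Values are % displacement of specific binding.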

The mark [3] stands for this setting: 1 h, GTPγS binding over basal, rat cerebellar membrane, read-out: Per Se % Stimulation.
[4] abbreviates: GTPγS binding, read-out: % Inhibition of WIN-55212-2 induced stimulation.
Setting [5] is: rat brain membrane, [3H]SR141716A displacement, read-out: % Displacement Protocol I.
Setting [6] is: hCB2-CHO membranes, [3H]-CP-55,940 displacement.
Where [7] appears, read: GTPγS binding over basal, rat cerebellar membrane.
The mark [8] stands for this setting: rat brain membrane, [3H]SR141716A displacement.
[9] abbreviates: read-out: % Displacement Protocol I, rat brain membrane, [3H]SR141716A displacement.

Molecules are shown by their SMILES. Read-outs that look alike come from different tables or passages of the source.

Chain of hCB2 (P34972 whole entry): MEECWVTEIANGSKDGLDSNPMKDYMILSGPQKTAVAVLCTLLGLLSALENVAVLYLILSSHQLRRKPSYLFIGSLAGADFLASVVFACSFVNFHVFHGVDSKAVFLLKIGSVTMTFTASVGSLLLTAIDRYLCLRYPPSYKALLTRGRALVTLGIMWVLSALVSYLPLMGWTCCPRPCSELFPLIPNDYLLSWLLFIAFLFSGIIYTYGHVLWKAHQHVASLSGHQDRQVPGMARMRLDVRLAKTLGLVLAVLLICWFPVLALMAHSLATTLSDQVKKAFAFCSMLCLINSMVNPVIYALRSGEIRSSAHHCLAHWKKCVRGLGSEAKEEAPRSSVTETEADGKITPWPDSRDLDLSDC
T1 sequence (P20272 whole entry): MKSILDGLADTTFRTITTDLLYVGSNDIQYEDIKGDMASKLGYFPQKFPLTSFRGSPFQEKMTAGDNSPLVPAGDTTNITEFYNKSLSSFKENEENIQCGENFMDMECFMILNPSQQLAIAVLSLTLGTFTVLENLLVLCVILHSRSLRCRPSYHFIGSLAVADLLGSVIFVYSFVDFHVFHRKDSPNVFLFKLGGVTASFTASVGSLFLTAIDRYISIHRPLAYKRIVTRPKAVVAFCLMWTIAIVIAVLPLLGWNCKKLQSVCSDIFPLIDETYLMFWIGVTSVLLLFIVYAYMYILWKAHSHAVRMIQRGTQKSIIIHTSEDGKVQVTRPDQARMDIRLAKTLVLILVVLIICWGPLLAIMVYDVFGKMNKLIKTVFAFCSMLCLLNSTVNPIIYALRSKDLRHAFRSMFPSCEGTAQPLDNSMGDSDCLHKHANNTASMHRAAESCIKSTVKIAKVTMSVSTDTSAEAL

Turning to `O=C(NCc1ccccc1)c1nn(-c2ccc(Cl)cc2Cl)c2c1C1CCC2C1` (centres unmarked) [Example 269, N(5)-benzyl-3-(2′,4′-dichlorophenyl)-3,4-diazatricyclo[5.2.1.0^2,6]deca-2(6),4-diene-5-carboxamide], the activation at 1 µM at CB1 [1] (setting [3]) worked out at 6%. Further, the inhibition at 1 µM on CB1 [1] (setting [4]) was found to be 91.4%. Further, the inhibition at CB1 [2] (setting [5]) turned out to be 47.7%.
With `O=C(NN1CCCCC1)c1nn(-c2ccc(Cl)cc2Cl)c2c1C1CC3CC(C1)CC2C3` [Example 180, N(7)-piperidino-5-(2′,4′-dichlorophenyl)-5,6-diazatetracyclo[7.3.1.1^3,11.0^4,8]tetradeca-4(8),6-diene-7-carboxamide], the inhibition at 0.3 µM at hCB2 (setting [6]) worked out at 13.2%. In addition, the activation at 1 µM at CB1 [1] (setting [3]) is 10%. In addition, on CB1 [1] (setting [4]), the inhibition at 1 µM is 87.9%. Also, the inhibition on CB1 [2] (setting [5]) came to 40.6%.
Consider `O=C(NNc1ccc(Cl)cc1Cl)c1nn(-c2ccc(Cl)cc2)c2c1C1CC3CC(C1)CC2C3` [Example 126, N(7)-(2,4-Dichlorophenylamino)-5-(4-chlorophenyl)-5,6-diazatetracyclo[7.3.1.1^3,11.0^4,8]tetradeca-4(8),6-diene-7-carboxamide], for which the activation at 1 µM on CB1 [1] (setting [3]) was -7.9%. Moreover, the inhibition at 1 µM at CB1 [1] (setting [4]) turned out to be 104%. Also, the inhibition at CB1 [2] (setting [5]) worked out at 118%.
`O=C(NCc1ccccc1)c1nn(-c2ccc(Cl)cc2)c2c1C1CC3CC(C1)CC2C3` [Example 139, N(7)-Benzyl-5-(4′-chlorophenyl)-5,6-diazatetracyclo[7.3.1.1^3,11.0^4,8]tetradeca-4(8)-6-diene-7-carboxamide]: the “Per Se % Stimulation” value on CB1 [1] (setting [7]) is given as −8.5%. Moreover, the “% Inhibition of WIN-55212-2 induced stimulation” value (shortened to “% Inhibition”) on CB1 [1] (GTPγS binding) is 109.1%. Further, the “% Displacement Protocol I” value on CB1 [2] (setting [8]) is reported as 62.4%.
With `O=C(NN(c1ccccc1)c1ccccc1)c1nn(-c2ccc(Cl)cc2Cl)c2c1C1CC3CC(C1)CC2C3` [Example 177, N(7)-(N′,N′-Diphenylimino)-5-(2,4-dichlorophenyl)-5,6-diazatetracyclo[7.3.1.1^3,11.0^4,8]tetradeca-4(8),6-diene-7-carboxamide], the “% Displacement Protocol IV” value on hCB2 (setting [6]) was 15.26%. Moreover, the “Per Se % Stimulation” value on CB1 [1] (setting [7]) worked out at 9.7%. For the same compound, the “% Inhibition” value at CB1 [1] (GTPγS binding) is given as 109.1%. The “% Displacement Protocol I” value on CB1 [2] (setting [8]) came out at 75.6%.
With `CN(NC(=O)c1nn(-c2ccc(Cl)cc2)c2c1C1CC3CC(C1)CC2C3)c1ccc(Cl)cc1Cl` [Example 127], the “Per Se % Stimulation” value on CB1 [1] (setting [7]) stood at 18.0%. Also, on CB1 [1] (GTPγS binding), the “% Inhibition” value came to 100.2%. At CB1 [2] (setting [8]), the “% Displacement Protocol I” value came to 85.3%.
With `O=C(NNc1ccccc1F)c1nn(-c2ccc(Cl)cc2Cl)c2c1C1CCC2C1` (centres unmarked) [Example 264, N(3)-[(2-Fluorophenyl)amino]-1-(2,4-dichlorophenyl)-4,5,6,7-tetrahydro-1H-4,7-methano-indazole-3-carboxamide], the activation at 1 µM at CB1 [1] (setting [3]) is -0.1%. Further, the inhibition at 1 µM on CB1 [1] (setting [4]) stood at 94.5%. Also, the inhibition at CB1 [2] (setting [5]) turned out to be 85.6%.
The corresponding values for `O=C(NC1CCCCC1)c1nn(-c2ccc(Cl)cc2Cl)c2c1C1CCC2C1` (centres unmarked) [Example 237, N(3)-Cyclohexyl-1-(2,4-dichlorophenyl)-4,5,6,7-tetrahydro-1H-4,7-methano-indazole-3-carboxamide] are 7.1%, 74.7% and 65.6%.
For the compound `O=C(NC12CC3CC(CC(C3)C1)C2)c1nn(-c2ccc(Cl)cc2Cl)c2c1C1CCC2C1` (centres unmarked) [Example 242, N(3)-(Adamantan-1yl)-1-(2,4-dichlorophenyl)-4,5,6,7-tetrahydro-1H-4,7-methano-indazole-3-carboxamide], the melting point (in general, the temperature of the solid-liquid transition) fell in the range of 201 to 204 °C. Moreover, the activation at 0.3 µM at CB1 [1] (1 h, GTPγS binding over basal, rat cerebellar membrane, tested at 300 nM, read-out: Per Se % Stimulation) was found to be 33.4%. For the same compound, the inhibition at 0.3 µM on CB1 [1] (GTPγS binding, tested at 300 nM in presence of 1 μM WIN 55,212-2, read-out: % Inhibition of WIN-55212-2 induced stimulation) was 22.9%.
Consider `O=C(NNc1ccc(Cl)cc1Cl)c1n[nH]c2c1C1(c3ccc(Cl)cc3)CCC2C1` (centres unmarked) [Example 230, N(3)-[(2,4-Dichlorophenyl)amino]-4-(4-chlorophenyl)-4,5,6,7-tetrahydro-1H-4,7-methano-indazole-3-carboxamide], for which the activation at 1 µM on CB1 [1] (setting [3]) turned out to be 42.4%. Also, the inhibition at 1 µM at CB1 [1] (setting [4]) was determined as 99.4%. In addition, the inhibition on CB1 [2] (setting [5]) was determined as 87.2%.
Compound `O=C(Nc1ccc(Cl)cc1)c1nn(-c2ccc(Cl)cc2)c2c1C1CCC2C1` (centres unmarked) [Example 216, N(3)-(4-Chlorophenyl)-1-(4-chlorophenyl)-4,5,6,7-tetrahydro-1H-4,7-methano-indazole-3-carboxamide] returned a melting point of 182 to 184 °C. Also, the inhibition at 0.3 µM on hCB2 (setting [6]) stood at 20.7%. Moreover, the inhibition at CB1 [2] (setting [5]) worked out at 32.2%.
The like results for `O=C(NCC1CCCCC1)c1nn(-c2ccc(Cl)cc2)c2c1C1CC3CC(C1)CC2C3` [Example 108, N(7)-Cyclohexylmethyl-5-(4-chlorophenyl)-5,6-diazatetracyclo[7.3.1.1^3,11.0^4,8]tetradeca-4(8),6-diene-7-carboxamide] were, in that order, 117 °C, 37.1% and 82.5%.
With `O=C(NC1CCCCC1)c1nn(-c2ccccc2Br)c2c1C1CCC2C1` (centres unmarked) [Example 271, N(3)-Cyclohexyl-1-(2-bromophenyl)-4,5,6,7-tetrahydro-1H-4,7-methano-indazole-3-carboxamide], the melting point worked out at 178 °C. Besides, on hCB2, the inhibition at 0.3 µM amounted to 46%. Also, on CB1 [2] (setting [9]), the inhibition is 11.7%.
In turn, `O=C(NN1CCCCC1)c1nn(-c2ccccc2Br)c2c1C1CCC2C1` (centres unmarked) [Example 270, N(3)-Piperidino-1-(2-bromophenyl)-4,5,6,7-tetrahydro-1H-4,7-methano-indazole-3-carboxamide] came in with a melting point of 236 °C. In addition, the inhibition at 0.3 µM at hCB2 (setting [6]) stood at 8.62%. Moreover, the inhibition at CB1 [2] (setting [5]) is -14.6%.
Regarding `Cl.O=C(NN1CCCCC1)c1nn(-c2ccc(Cl)cc2Cl)c2c1C1CCC2c2ccccc21` (centres unmarked) [Example 503, N(12)-Piperidino-10-(2,4-dichlorophenyl)-10,11-diazatetracyclo[6.5.2.0^2,7.0^9,13]pentadeca-2,4,6,9(13),11-pentaene-12-carboxamide hydrochloride], the “Per Se % Stimulation” value at CB1 [1] (setting [7]) stood at 1.5%. Besides, the “% Inhibition” value on CB1 [1] (GTPγS binding) was found to be 92.0%. Also, the inhibition at CB1 [2] (setting [9]) was 81.2%.
